Measured values published in patent US9980957B2, “Histone deacetylase (HDAC) inhibitors for the treatment of cancer” (TopoTarget UK Limited, priority 2005, dated 2018).
Read-outs that look alike come from different tables or passages of the source.

Tests used:
[1] = test system: A2780 ovarian cancer subcutaneous xenograft; test: A2780 ovarian cancer subcutaneous xenograft model; type: in vivo; conditions: AVASTIN 5 mg/kg on day 4, mice
Method: The object of this study was to investigate the tumour growth inhibitory effect of AVASTIN® (bevacizumab) in an A2780 ovarian cancer subcutaneous xenograft model. Mice were treated on day 4 with AVASTIN® (bevacizumab) (5 mg/kg). The chemosensitising effect of PXD-101 in combination with AVASTIN® (bevacizumab) was also investigated.

[2] = test system: histone H4 acetylation in peripheral blood mononuclear cells; test: Phase 1 study, pharmacodynamics: acetylation of histones from PBMNC by Western blotting; type: in vivo, human
Method: (§1) PXD-101 was administered as a 30-minute intravenous (IV) infusion daily for 5-days every 3-weeks. In a subgroup of patients, PXD-101 was administered orally once, twice or thrice on day 1 only, in course 2 or 3. Acetylation of histones extracted from peripheral blood mononuclear cells (PBMNC) was measured by Western blotting. The PK/PD profile of intravenous and oral PXD-101 was evaluated.

[3] = test system: L-363 plasma cell leukemia cell line; test: CellTiter-Glo cell viability assay; type: cell-based; conditions: Homo sapiens, 72 h, read-out: PXD-101 IC50
Method: (§2) Percent activity (% activity), was calculated for each test compound as: % activity={(S^c−B)/(S^o−B)}×100
(§3) wherein S^c denotes signal measured in the presence of the compound being tested, S^o denotes signal measured in the absence of the compound being tested, and B denotes the background signal measured in blank wells containing medium only. The IC50 corresponds to the drug concentration which achieves 50% activity of untreated control cultures. IC50 values were calculated using the software package Prism 3.0 (GraphPad Software Inc., San Diego, Calif.) with variable slope option.
(§4) This example reports the effects of PXD-101 on six distinct multiple myeloma cell lines, three plasma cell leukemia cell lines and one plasmacytoma. The cells were incubated with PXD-101 for 72 hours in vitro, and their viability measured by the CellTiter-Glo assay.

[4] = test system: KARPAS-620 plasma cell leukemia cell line; test: CellTiter-Glo cell viability assay; type: cell-based; conditions: KARPAS-620, plasma cell leukemia t(8;14)(q24;q32); 72 h; read-out: PXD-101 IC50
Method: as §2, §3, §4

[5] = test system: EJM multiple myeloma cell line; test: CellTiter-Glo cell viability assay; type: cell-based; conditions: Homo sapiens, 72 h, read-out: PXD-101 IC50
Method: as §2, §3, §4

[6] = test system: OPM-2 multiple myeloma cell line; test: CellTiter-Glo cell viability assay; type: cell-based; conditions: Homo sapiens; OPM-2, MM t(4;14)(p16;q32); 72 h; read-out: PXD-101 IC50
Method: as §2, §3, §4

[7] = test system: SK-MM-2 plasma cell leukemia cell line; test: CellTiter-Glo cell viability assay; type: cell-based; conditions: Homo sapiens; SK-MM-2, plasma cell leukemia t(11;14)(q13;q32); 72 h; read-out: PXD-101 IC50
Method: as §2, §3, §4

[8] = test system: U266 multiple myeloma cell line; test: CellTiter-Glo cell viability assay; type: cell-based; conditions: Homo sapiens, U-266, 72 h, read-out: PXD-101 IC50
Method: as §2, §3, §4

[9] = test system: RPMI-8226 multiple myeloma cell line; test: CellTiter-Glo cell viability assay; type: cell-based; conditions: Homo sapiens, 72 h, read-out: PXD-101 IC50
Method: as §2, §3, §4

[10] = test system: AMO-1 plasmacytoma cell line; test: CellTiter-Glo cell viability assay; type: cell-based; conditions: Homo sapiens, AMO1, 72 h, read-out: PXD-101 IC50
Method: as §2, §3, §4

[11] = test system: LP-1 multiple myeloma cell line; test: CellTiter-Glo cell viability assay; type: cell-based; conditions: Homo sapiens, LP-1, MM t(4;14)(p16;q32), 72 h, read-out: PXD-101 IC50
Method: as §2, §3, §4

[12] = test system: KMS-12-BM multiple myeloma cell line; test: CellTiter-Glo cell viability assay; type: cell-based; conditions: Homo sapiens, MM t(11;14)(q13;q32), 72 h, read-out: PXD-101 IC50
Method: as §2, §3, §4

[13] = test system: advanced cancers; test: Phase 1 study, tumor reduction in patients with advanced cancers; type: in vivo, human; conditions: a patient with epithelial mediastinal thymoma
Method: A Phase 1 open label, dose escalation, safety, pharmacokinetics (PK), and pharmacodynamics (PD) study of PXD-101 was conducted in patients with advanced cancers. PXD-101 was administered as a 30-minute intravenous (IV) infusion daily for 5-days every 3-weeks. In a subgroup of patients, PXD-101 was administered orally once, twice or thrice on day 1 only, in course 2 or 3. Acetylation of histones extracted from peripheral blood mononuclear cells (PBMNC) was measured by Western blotting. The PK/PD profile of intravenous and oral PXD-101 was evaluated.

[14] = test system: diverse tumor cell lines; test: Proliferation of diverse tumor cell lines; type: cell-based
[15] = test system: six multiple myeloma cell lines, three plasma cell leukemia cell lines and one plasmacytoma; test: CellTiter-Glo cell viability assay, all ten cell lines; type: cell-based; conditions: 72 h
Method: as §2, §3, §4

[16] = Phase 1 dose escalation study, safety; type: in vivo, human
Method: (§5) A Phase 1 open label, dose escalation, safety, pharmacokinetics (PK), and pharmacodynamics (PD) study of PXD-101 was conducted in patients with advanced cancers.
as §1
The results of this study are as follows: 34 patients (median age 58 years, range 28-74; 19 male, all ECOG PS≤2) have been treated with a total of 103 cycles of PXD-101 (median 2; range 1 to 13) at 6 dose levels: 150 mg/m^2 (4 patients), 300 mg/m^2 (4 patients), 600 mg/m^2 (6 patients), 900 mg/m^2 (3 patients), 1000 mg/m^2 (12 patients) and 1200 mg/m^2 (5 patients).

[17] = Phase 1 dose escalation study, pharmacokinetics; type: in vivo, human; conditions: for half-life / Cmax / bioavailability: human, in vivo
Method: as §5, §1

In the case of “AVASTIN® (bevacizumab): recombinant humanized antibody to Vascular Endothelial Growth Factor (VEGF)”, the “Tumour growth inhibition, in words” value [1] is reported as “significant growth inhibition”.
With `O=C(/C=C/c1cccc(S(=O)(=O)Nc2ccccc2)c1)NO` [PXD-101] the “Duration of histone H4 hyperacetylation” value ([2]; IV infusion, dose-dependent) was 4 to 24 h, the “Duration of histone acetylation above baseline” value ([2]; oral 1000 mg/m^2) was 5 to 10 h and the “Histone acetylation above baseline” value ([2]; oral 1000 mg/m^2) was 40-50%. The IC50 [3] was 100 nM, the IC50 [4] was 112 nM and the IC50 [5] was 123 nM. For the same compound, the IC50 [6] was 106 nM, the IC50 [7] was 28 nM and the IC50 [8] was 141 nM. It also gave an IC50 [9] of 196 nM, an IC50 [10] of 29 nM and an IC50 [11] of 45 nM. For the same compound, the IC50 [12] was 88 nM, the “Reduction of mediastinal disease” value [13] was 70% and the “Time on the study” value [13] was “over 1 year”. For the same compound, the IC50 [14] was 80 to 2430 nM, the IC50 ([15]; mean of ten cell lines, read-out: IC50, mean of the ten cell lines) was 97 nM and the IC50 ([15]; ten cell lines, read-out: IC50, range over the ten cell lines) was 28 to 196 nM. The “Patients with dose limiting toxicity” value ([16]; both, human, in vivo, iv, 5 days every 3 weeks) was 3 patients, the “Most commonly reported other adverse events” value ([16]; in vivo) was “fatigue, nausea, vomiting, constipation, diarrhea and injection site reactions” and the Dose limiting toxicity ([16]; in vivo, iv) was “short-lived atrial fibrillation”. The “Tolerability, in words” value ([16]; in vivo, iv) was “well tolerated”, the “Tolerability, in words” value ([16]; in vivo, po) was “well tolerated” and the MTD ([16]; once daily for 5-days 30-minute IV infusion) was 1000 mg/m^2. The “Accumulation, oral” value ([17]; 8-hour interval dosing) was “tendency towards accumulation”, the “Accumulation, oral” value ([17]; 12-hour interval dosing) was “no accumulation” and the half-life ([17]; intravenous, one patient outside the range, read-out: t1/2, one patient (converted)) was 108 min. It also gave a half-life ([17]; iv, patients, IV infusion, read-out: Terminal elimination half-life) of 30 to 60 min, a Cmax ([17]; iv, reached at the end of the infusion) of 6500 to 55800 ng/mL and a Cmax ([17]; po, 1000 mg/m2, b.i.d. 1000 mg/m^2 oral on a single day, 5 patients) of 1100 to 2900 ng/mL. The bioavailability ([17]; po, 1000 mg/m2, b.i.d. 1000 mg/m^2 oral on a single day, 5 patients, SD 12.5%, read-out: Mean oral bioavailability) was 42.8%, the half-life ([17]; po, 1000 mg/m2, b.i.d. 1000 mg/m^2 oral on a single day, 5 patients, read-out: t1/2) was 90 to 120 min and the Cmax ([17]; po, 1000 mg/m2, t.i.d. 1000 mg/m^2 oral on a single day, 2 patients) was 1300 to 1800 ng/mL. The half-life ([17]; po, 1000 mg/m2, t.i.d. 1000 mg/m^2 oral on a single day, 2 patients, read-out: t1/2) was 120 to 156 min, the bioavailability ([17]; po, oral single dose, read-out: Mean single dose oral bioavailability) was 33% and the “Oral bioavailability, in words” value ([17]; patients) was “orally bioavailable”. For the same compound, the “PK dose dependence, in words” value ([17]; patients, IV) was “dose-proportional” and the “Accumulation on repeated IV dosing” value ([17]; repeated IV dosing) was “no drug accumulation”.
